Each structure is given as a SMILES string.

The Ki is the equilibrium dissociation constant of an inhibitor or competing ligand from its target. A high value points to a looser hold on the target. A word on the IC50: it is the midpoint of a concentration-inhibition curve. A low value points to greater potency.

In one assay the target is Cannabinoid receptor 1 (Homo sapiens, UniProt P21554). Description: CB1 & 2 Binding Assays. To be noted: pH 7.4; 30 °C.
Assay [1] addresses T1, Fatty-acid amide hydrolase 1 (Homo sapiens, UniProt O00519).
T1 sequence (O00519 whole entry): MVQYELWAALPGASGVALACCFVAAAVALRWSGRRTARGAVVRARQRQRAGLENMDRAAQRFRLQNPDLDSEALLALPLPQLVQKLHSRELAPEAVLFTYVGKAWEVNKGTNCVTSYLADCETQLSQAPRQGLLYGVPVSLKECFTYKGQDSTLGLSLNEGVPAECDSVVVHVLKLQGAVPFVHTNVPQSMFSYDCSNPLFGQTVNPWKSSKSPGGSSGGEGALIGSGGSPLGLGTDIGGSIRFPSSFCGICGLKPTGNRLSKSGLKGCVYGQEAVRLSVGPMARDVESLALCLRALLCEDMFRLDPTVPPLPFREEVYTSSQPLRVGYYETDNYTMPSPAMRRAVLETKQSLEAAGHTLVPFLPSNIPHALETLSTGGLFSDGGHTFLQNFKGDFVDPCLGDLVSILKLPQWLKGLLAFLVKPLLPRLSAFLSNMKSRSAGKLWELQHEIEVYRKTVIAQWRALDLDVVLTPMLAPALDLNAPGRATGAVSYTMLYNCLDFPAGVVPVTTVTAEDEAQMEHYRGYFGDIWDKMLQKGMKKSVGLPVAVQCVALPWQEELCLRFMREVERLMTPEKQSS
Description: FAAH Activity Assay. To be noted: pH 7.6; 37 °C. As to the method: In this assay, 0.05 Units of hFAAH was pre-incubated for 30 min at 37 C with 2 uL of 11a, 11b, 11f at different concentrations (0.01 - 100 uM) or vehicin 196 uL of assay buffer (10 mM Tris-HCl, 1 mM EDTA (pH 7.6) and 0.1% w/v fatty acid-free BSA). 2 uL of AEA/[3H]-AEA mixture was added to the solution (final concenttion in assay was 10 nM) and incubated for 15 min at 37 C.

The target of another assay is Cannabinoid receptor 2 (Homo sapiens, UniProt P34972). The experiment in a line: CB1 & 2 Binding Assays. The following applies: pH 7.4; 30 °C.
Sequence of Cannabinoid receptor 2 (P34972 whole entry): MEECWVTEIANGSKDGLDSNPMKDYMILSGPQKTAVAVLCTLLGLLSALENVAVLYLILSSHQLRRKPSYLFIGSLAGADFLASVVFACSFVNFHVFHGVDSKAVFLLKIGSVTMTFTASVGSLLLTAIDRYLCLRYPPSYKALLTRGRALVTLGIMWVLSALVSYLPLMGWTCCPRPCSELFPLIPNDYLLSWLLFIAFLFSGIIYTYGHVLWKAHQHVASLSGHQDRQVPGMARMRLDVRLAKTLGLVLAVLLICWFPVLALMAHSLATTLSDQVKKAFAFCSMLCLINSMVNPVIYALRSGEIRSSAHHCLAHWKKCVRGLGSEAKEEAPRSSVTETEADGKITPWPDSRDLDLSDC

Sequence of Cannabinoid receptor 1 (P21554 whole entry): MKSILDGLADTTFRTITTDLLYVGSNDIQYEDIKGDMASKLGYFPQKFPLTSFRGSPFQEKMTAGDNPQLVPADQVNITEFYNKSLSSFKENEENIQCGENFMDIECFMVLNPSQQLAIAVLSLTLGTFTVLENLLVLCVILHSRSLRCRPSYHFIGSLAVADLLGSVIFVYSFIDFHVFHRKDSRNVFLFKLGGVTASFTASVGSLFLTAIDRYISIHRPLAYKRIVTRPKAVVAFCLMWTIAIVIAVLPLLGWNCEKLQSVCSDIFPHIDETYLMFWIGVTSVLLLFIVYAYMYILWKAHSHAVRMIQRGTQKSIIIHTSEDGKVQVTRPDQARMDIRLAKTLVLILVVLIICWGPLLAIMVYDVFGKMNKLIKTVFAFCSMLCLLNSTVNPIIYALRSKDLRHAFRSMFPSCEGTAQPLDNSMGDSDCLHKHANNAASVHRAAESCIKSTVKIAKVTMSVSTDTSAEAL

For the compound `C=C1CC/C=C(\C)CC[C@@H]2[C@H]1CC2(C)C` [β-humulene], on Cannabinoid receptor 1, the Ki is above 10 µM. For the same compound, the IC50 in assay [1] is above 10 µM.

As to `C=C(C)CC[C@@H]1[C@H](C(=C)CC/C=C/C(=O)NCCc2ccc(O)c(O)c2)CC1(C)C` [(E)-N-(3,4-Dihydroxyphenethyl)-6-((1R,2R)-3,3-dimethyl-2-(3-methylbut-3-enyl)cyclobutyl)hepta-2,6-dienamide (11f)], the inhibition constant (Ki) is above 10 µM at Cannabinoid receptor 1 and 6.5 µM at Cannabinoid receptor 2. This compound also had a half-inhibitory concentration (IC50) in assay [1] above 10 µM.

On to `C=C(C)CC[C@@H]1[C@H](C(=C)CC/C=C/C(=O)NCc2ccc(O)c(OC)c2)CC1(C)C` [(E)-6-((1R,2R)-3,3-Dimethyl-2-(3-methylbut-3-enyl)cyclobutyl)-N-(4-hydroxy-3-methoxybenzyl)hepta-2,6-dienamide (11e)], for which the Ki on Cannabinoid receptor 1 and on Cannabinoid receptor 2 was above 10 µM throughout. Further, it took 7.1 µM to reach half-maximal inhibition in assay [1] (IC50).

Consider `C=CCNC(=O)/C=C/CCC(=C)[C@@H]1CC(C)(C)[C@@H]1CCC(=C)C` [(E)-N-Allyl-6-((1R,2R)-3,3-dimethyl-2-(3-methylbut-3-enyl)cyclobutyl)hepta-2,6-dienamide (11b)], for which the affinity at Cannabinoid receptor 2 corresponds to a Ki of 0.68 µM. Also, half-maximal inhibition in assay [1] (IC50) required 2.7 µM.

As to `C=C(C)CC[C@@H]1[C@H](C(=C)CC/C=C/C(=O)NCCCl)CC1(C)C` [(E)-N-(2-Chloroethyl)-6-((1R,2R)-3,3-dimethyl-2-(3-methylbut-3-enyl)cyclobutyl)hepta-2,6-dienamide (11c)], at Cannabinoid receptor 2, the affinity, expressed as Ki, was 1.43 µM. The compound further gave an IC50 in assay [1] above 10 µM.

In the case of `CCCC(C)(C)c1ccc2c(c1)OC(C)(C)[C@@H]1CC=C(C)C[C@@H]21`, the Ki at Cannabinoid receptor 2 amounted to 0.013 µM.

With `C=C(C)CC[C@@H]1[C@H](C(=C)CC/C=C/C(=O)NCCC)CC1(C)C` [(E)-6-((1R,2R)-3,3-Dimethyl-2-(3-methylbut-3-enyl)cyclobutyl)-N-propylhepta-2,6-dienamide (11a)], the affinity at Cannabinoid receptor 2, expressed as Ki, was 1.01 µM. For the same compound, the concentration for half-maximal inhibition (IC50) in assay [1] is 6.3 µM.

The values are drawn from BindingDB's records for doi:10.1021/cb500177c (University of Bern, 2014).
